# According to US20180140609A1, “USE OF (4-HYDROXY-2-METHYL-1,1-DIOXIDO-2H-BENZO[E][1,2]THIAZINE-3-YL)(NAPHTHALENE-2-YL) METHANONE IN THE PREVENTION AND/OR TREATMENT OF NON-ALCOHOLIC STEATOHEPATITIS” (PIERRE FABRE MEDICAMENT, priority 2015, published 2018):
# Legend:
# [1] = Plasma level by LC/MS after single oral administration in C57BL/6N mice; type: in vivo; conditions: parent molecule by LC/MS
# Protocol: The evaluation is made in on 4- to 6-week-old non-fasted male C57BL/6N strain mice. The compounds to be tested or the vehicle (0.5% methylcellulose in water, at 10 ml/kg) are administered orally; n=3 mice per treatment.
# Blood samples are collected 1 h and 4 h after administration; the tubes are centrifuged to obtain plasma and frozen at −70° C. until bioanalysis. Plasma bioactivity (2% final volume) is analyzed by using the inhibition of human 11β-HSD type 1 as a detection system (SPA technology) for each compound at each dose tested. Percent inhibition (versus mice treated with carrier) is calculated for each dose.
# Compound 1 is detected in the plasma of the treated mice and inhibits 11β-HSD type 1 as of 0.63 mg/kg. LC/MS analyses of plasma samples from the animals treated with Compound 1K show a much higher plasma level of the parent molecule than that found for Compound 1.
# [2] = test system: hepatic 11β-HSD type 1; experiment: Ex vivo activity of hepatic 11β-HSD type 1 after single oral administration in cynomolgus monkeys; conditions: 20 mg/kg single oral, liver 4 hours after administration
# Protocol: (§1) Five adult male cynomolgus monkeys (same animals used in studies 1 and 2 of Example 4) are fasted the evening before the experiment. Blood samples are taken right before administration of Compound 1K (dose of 20 mg/kg, n=3) or administration of the vehicle (0.5% methylcellulose in water, n=2) then 4 hours after oral administration. The animals are euthanized, necropsy is performed on the monkeys, samples of plasma and of target tissues are taken and then frozen in liquid nitrogen and stored at −70° C. until ex vivo analyses. To test the ex vivo activity of 11β-HSD type 1, 5-10 mg liver samples were incubated in duplicate for 30 minutes at 37° C. with 17 nM [1,2-^3H] cortisone in 50 mM HEPES (pH 7.4), 100 mM KCl, 5 mM NaCl, 2 mM MgCl2. Plasma levels were measured by the LC-MS/MS analytical method. The liver samples were homogenized by sonication and extracted with acetonitrile (1 ml of distilled water, 4 ml of acetonitrile for 200 mg of tissue). Tissue levels of the compounds were measured by the LC-MS/MS analytical method.
# [3] = Plasma and tissue levels after single oral administration in cynomolgus monkeys (LC-MS/MS); type: in vivo; conditions: male, cynomolgus monkey, 20 mg/kg oral
# Protocol: as §1
# (§2) The protocol is the same as that described in Example 5, except that the tissue samples are from mesenteric, subcutaneous and inguinal adipose tissue.
# [4] = test system: 11β-HSD type 1 of adipose tissue; experiment: Ex vivo activity of 11β-HSD type 1 of adipose tissue after single oral administration to cynomolgus monkeys; type: in vivo; conditions: 20 mg/kg single oral, 4 hours, mesenteric and subcutaneous adipose tissue
# Protocol: as §1, §2
# [5] = Plasma exposure in cynomolgus monkeys (prednisone challenge studies, LC-MS/MS); type: in vivo; conditions: same dose of 20 mg/kg
# Protocol: (§3) Briefly, the study is carried out in naive adult male cynomolgus monkeys fasted overnight. The 11β-HSD type 1 inhibitor or its vehicle (0.5% methylcellulose in water) is administered via nasogastric intubation. Two hours later, a challenge with orally administered prednisone (10 mg/kg) is performed and blood samples are taken regularly for 24 hours. These samples are centrifuged to obtain plasma and immediately frozen at −70° C. until bioanalysis. Plasma levels of prednisone, prednisolone and 11β-HSD type 1 inhibitors are measured by LC-MS/MS analytical methods.
# (§4) The study is carried out over a period of 10 weeks. Profiles of plasma concentration as a function of time and areas under the curve are calculated using the trapezoidal method for all parameters.
# [6] = Clinical and behavioral signs in cynomolgus monkeys during the prednisone challenge studies; type: in vivo; conditions: study no. 2, 20, 40 and 80 mg/kg, even at 80 mg/kg
# Protocol: as §3, §4
# [7] = test system: 11β-HSD type 1; experiment: Inhibition of conversion of prednisone to prednisolone after single administration to cynomolgus monkeys; type: in vivo
# Protocol: The protocol used is described by Bhat et al. (J. Pharmacol. Exp. Ther. 324, 299-305, 2008).
# as §3, §4
# The effect of Compound 1 is evaluated at three doses: 1.25, 5 and 20 mg/kg.
# The effect of Compound 1K is evaluated at three doses: 20, 40 and 80 mg/kg. The protocol is quite similar to the preceding, except that only 5 blood samples were taken per monkey rather than 7. Compound 1K was also evaluated over a period of 10 weeks.
# The 11β-HSD type 1 activity-dependent conversion of prednisone to prednisolone was evaluated. Compound 2K inhibits roughly 50% this activity at a dose of 20 mg/kg (FIG. 2A). FIG. 2 represents the effects of Compound 2K, at the three doses tested, on plasma prednisolone/prednisone ratio calculated with the area under the curve between 30 minutes and 4 hours (panel A) and on plasma exposure during the 6-hour experimental period (panel B); the results obtained with Compound 1K at a dose of 5 mg/kg are compared in the two panels.
# [8] = molecular target: human 11β-HSD type 1 (Homo sapiens, UniProt P28845); experiment: Bioactivity of inguinal white adipose tissue after single oral administration in C57BL/6N mice, read as inhibition of human 11β-HSD type 1 (SPA); type: in vivo; conditions: mouse inguinal white adipose tissue extract
# human 11β-HSD type 1, sequence (P28845 whole entry): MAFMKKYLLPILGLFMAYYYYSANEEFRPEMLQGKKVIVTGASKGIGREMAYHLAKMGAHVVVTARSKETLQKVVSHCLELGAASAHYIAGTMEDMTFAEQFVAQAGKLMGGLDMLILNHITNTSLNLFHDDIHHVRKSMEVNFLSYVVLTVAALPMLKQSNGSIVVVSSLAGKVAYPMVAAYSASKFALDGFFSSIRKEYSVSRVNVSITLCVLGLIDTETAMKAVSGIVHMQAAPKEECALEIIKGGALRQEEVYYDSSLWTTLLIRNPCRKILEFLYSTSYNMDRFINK
# Protocol: Four hours post-administration, the mice are euthanized and inguinal white adipose tissue is taken and frozen at −70° C. until the day of bioanalyses. The white adipose tissue is homogenized in liquid nitrogen and then treated with acetonitrile (1 ml of distilled water for 4 ml of acetonitrile and 200 mg of inguinal white adipose tissue) to extract soluble substances. The acetonitrile fraction is collected, then dried, and the residue is dissolved in 1 ml of DMSO for 300 mg of white adipose tissue.
# Compounds tested: the same as those of Example 2.
smiles,measurement,setting,value
"CN1C(C(=O)c2ccc3ccccc3c2)=C([O-])c2ccccc2S1(=O)=O.[K+] [Compound 1K, potassium 3-(2-naphthoyl)-2-methyl-2H-benzo[e][1,2]thiazin-4-olate 1,1-dioxide]",Plasma 1 h,"[1]; 10 mg/kg oral, 1 h",13900 ± 2117 ng/mL
same,concentration at 1 h,"[1]; male, C57BL/6N, mouse, plasma, po, 2.5 mg/kg, 2.5 mg/kg oral, 1 h",4240 ± 1260 ng/mL
same,concentration at 4 h,"[1]; male, C57BL/6N, mouse, plasma, po, 2.5 mg/kg, 2.5 mg/kg oral",3470 ± 2430 ng/mL
same,concentration at 4 h,"[1]; male, C57BL/6N, mouse, plasma, po, 10 mg/kg, 10 mg/kg oral",6810 ± 674 ng/mL
same,inhibition of the ex vivo activity of hepatic 11β-HSD type 1,[2],68%
same,concentration at 4 h,"[3]; liver, read-out: mean hepatic levels (in relative value)",13600 ± 3700 ng/g
same,concentration at 4 h,"[3]; inguinal adipose tissue, read-out: tissue levels (in relative value), inguinal adipose tissue",6100 ± 1500 ng/g
same,concentration at 4 h,"[3]; mesenteric adipose tissue, read-out: tissue levels (in relative value), mesenteric adipose tissue",6600 ± 400 ng/g
same,concentration at 4 h,"[3]; plasma, ± SEM, n=3, read-out: mean plasma levels",17000 ± 3580 ng/mL
same,concentration at 4 h,"[3]; subcutaneous adipose tissue, read-out: tissue levels (in relative value), subcutaneous adipose tissue",1300 ± 100 ng/g
same,inhibition of ex vivo activity of 11β-HSD type 1 of peripheral and visceral adipose tissue,[4],complete inhibition
same,increase of plasma exposure versus Compound 1,[5],~8 fold
same,clinical or behavioral sign,[6],No particular clinical or behavioral sign
same,inhibition of plasma prednisolone/prednisone ratio of AUC (30 minutes to 4 hours),"[7]; 20 mg/kg, prednisone 10 mg/kg 2 h later",81%
same,inhibition of conversion of prednisone to prednisolone (prednisolone/prednisone AUC ratio),[7]; 40 mg/kg,79%
same,inhibition of conversion of prednisone to prednisolone (prednisolone/prednisone AUC ratio),[7]; 80 mg/kg,89%
same,"""maximum"" inhibition of plasma prednisolone/prednisone ratio of AUC (30 minutes to 4 hours)","[7]; all the doses tested (20, 40 and 80 mg/kg), 5 animals per group",at least 80%
same,% inhibition after 4 h,[8]; 4 h after 0.63 mg/kg oral,21%
same,% inhibition after 4 h,[8]; 4 h after 2.5 mg/kg oral,41%
same,% inhibition after 4 h,[8]; 4 h after 10 mg/kg oral,70%
